Reference: patent publication US20180087079A1, “METHODS OF USING CELL-CYCLE INHIBITORS TO MODULATE ONE OR MORE PROPERTIES OF A CELL CULTURE” (AMGEN INC., priority 2013, published 2018)
pIC50: −log10 of the molar value. Blank lines part the entries; values can stand above or below the compound they belong to.

Key:
CDK4/Cyclin D1 = molecular target: T1, CDK4/Cyclin D1 (Homo sapiens, UniProt P11802); experiment: CDK4 filtration kinase assay; type: biochemical; conditions: CDK4/Cyclin D1, Rb fragment substrate, [33P]-ATP
T1 construct: purchased Cell Signaling Technology
T1 sequence (P11802 whole entry, species assumed, the tested form may be a part): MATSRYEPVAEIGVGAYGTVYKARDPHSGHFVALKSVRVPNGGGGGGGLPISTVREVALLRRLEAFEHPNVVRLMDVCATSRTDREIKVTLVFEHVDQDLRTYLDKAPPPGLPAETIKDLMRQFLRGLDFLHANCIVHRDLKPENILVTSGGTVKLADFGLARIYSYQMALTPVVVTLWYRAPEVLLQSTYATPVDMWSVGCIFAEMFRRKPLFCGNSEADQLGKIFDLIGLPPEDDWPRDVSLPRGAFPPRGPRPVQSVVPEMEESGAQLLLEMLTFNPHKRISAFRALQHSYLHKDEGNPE
T1 sequence (P24385 whole entry partner, species assumed, the tested form may be a part): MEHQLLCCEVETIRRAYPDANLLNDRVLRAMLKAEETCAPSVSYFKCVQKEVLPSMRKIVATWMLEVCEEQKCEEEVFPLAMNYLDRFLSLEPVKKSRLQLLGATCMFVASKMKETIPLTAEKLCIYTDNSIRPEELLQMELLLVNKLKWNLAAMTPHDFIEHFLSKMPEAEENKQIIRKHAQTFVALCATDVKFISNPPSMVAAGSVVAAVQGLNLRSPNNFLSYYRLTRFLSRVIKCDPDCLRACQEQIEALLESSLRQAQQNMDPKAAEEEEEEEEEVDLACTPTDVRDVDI
Experimental: The CDK4 inhibitory activity of the cell cycle inhibitors was determined with a filtration kinase assay. The compounds, kinase and substrate diluted in the kinase buffer (20 mM Tris, pH7.4, 50 mM NaCl, 1 mM DTT, 0.1% BSA) were sequentially added to a 96-well Multiscreen HTS filtration plate (Millipore). The final 100 μL reaction mixture in each well contained 0.3 μg of CDK4/Cyclin D1 (Cell Signaling Technology), 1 μg of Rb fragment (aa773-928, Millipore) for the CDK4 assay and 1 μCi of [^33P]-ATP. The mixture was incubated at room temperature for 1 hour. The proteins in the reaction were then precipitated and washed with cold TCA solution using an aspiration/filtration vacuum system. The plates were dried at room temperature, and the retained radioactivity was measured by scintillation counting. IC50 values of the compounds in the above assays were determined by non-linear regression analysis using Prism (GraphPad Software).

[1] = system: transfected CHO cells expressing recombinant human monoclonal antibody (cell line 1); experiment: 24-deep well culture, cell line 1: VCD, viability, titer, qP; type: cell-based, Chinese hamster; conditions: for Titer / VCD / Viability / qP: Cell Line 1; for effect on viability / growth arrest: summary of Table 2
Experimental: Transfected CHO cells expressing a recombinant human monoclonal antibody (mAb) are cultured in 24-deep well plates with seeding density at 1×10^7/mL for five days. At certain time periods, samples of the cultures are taken and evaluated for viable cell density (VCD; expressed in 10^6 cells/mL); percent viability (as determined by trypan blue exclusion); titer of recombinant protein (expressed in grams of protein per liter of culture, or g/L, as determined by Protein A affinity HPLC); qP, or specific productivity (expressed in picograms of recombinant protein per cell per day, or pg/c/d), the presence or absence of high molecular weight substances (usually an indicator of protein aggregation; expressed as % of the total protein); and the relative percentage of Mannose 5, a major intermediate glyco-form that attaches to N297 of the mAb. N-linked glycosylation has an impact on the tertiary structure of the antibody and may affect Fc mediated antibody effector functions. The majority of the human Fc glycans are complex biantennary structures with galactose as the prevalent terminal sugar. Immature glyco-forms, such as high-mannose glycol-forms (Man5-9), are of concern due to potential higher plasma clearance rate (as compared to the clearance rate of complex glycan linked mAbs).
Compounds are further evaluated essentially as described in Example 2 herein. Briefly, transfected CHO cells expressing recombinant human monoclonal antibody (mAb; two different cell lines expressing two different mAb, referred to as cell line 1 and cell line 2) are cultured in 24-deep well plates in the presence or absence of the compounds. At specified time points, samples of the cultures are taken and evaluated for viable cell density (VCD; expressed in 10^6 cells/mL); percent viability (as determined by any method known in the art); titer of recombinant protein (expressed in grams of protein per liter of culture, or g/L, as determined by Protein A affinity HPLC); qP, or specific productivity (expressed in picograms of recombinant protein per cell per day, or pg/c/d). Additional parameters measure include the presence or absence of high molecular weight substances (usually an indicator of protein aggregation; expressed as % of the total protein); and the relative percentage of Mannose 5. For comparison purposes, Compounds A and B, which had been previously tested, were tested again.

Colo205 = experiment: [14C]-thymidine incorporation cell proliferation inhibition assay; type: cell-based; conditions: Homo sapiens, COLO 205, 72 hour incubation
Experimental: The cell proliferation inhibition potency of the cell cycle inhibitors was determined by using a [^14C]-thymidine incorporation assay. Exponentially growing cells (Colo205) were seeded in a 96-well Cytostar T plate (GE Healthcare Biosciences) at a density of 5×10^3 cells/well and incubated overnight. Serially diluted compounds and 0.1 μCi of [^14C]-thymidine (GE Healthcare Biosciences) were added to each well on the following day. After 72 hour incubation, isotope incorporation was determined with a β plate counter (Wallac). IC50 values of the compounds in the above assays were determined by non-linear regression analysis using Prism (GraphPad Software).

pIC50 (CDK4/Cyclin D1): 8.35 | pIC50 (Colo205): 7.42
SMILES: CC1CCC(n2c3cnccc3c3cnc(Nc4ccc(N5CCC6(CC5)CCS(=O)(=O)C6)nn4)nc32)CC1 (stereo not drawn) [Compound E, 8-(6-((9-(4-methylcyclohexyl)-9H-pyrido[4′,3′:4,5]pyrrolo[2,3-d]pyrimidin-2-yl)amino)pyridazin-3-yl)-2-thia-8-azaspiro[4.5]decane 2,2-dioxide]
Titer ([1]; 5 microM, D 1): 0.47 g/L | VCD ([1]; 5 microM, D 1): 10.31 e6/mL | Viability ([1]; 5 microM, D 1): 95.94% | qP ([1]; 5 microM, D 1): 45.61 pg/c/d | Titer ([1]; 5 microM, D 2): 0.67 g/L | VCD ([1]; 5 microM, D 2): 9.37 e6/mL | Viability ([1]; 5 microM, D 2): 85.43% | qP ([1]; 5 microM, D 2): 71.53 pg/c/d | Titer ([1]; 5 microM, D 3): 0.85 g/L | VCD ([1]; 5 microM, D 3): 10.05 e6/mL | Viability ([1]; 5 microM, D 3): 79.09% | qP ([1]; 5 microM, D 3): 84.92 pg/c/d | Titer ([1]; 5 microM, D 4): 0.98 g/L | VCD ([1]; 5 microM, D 4): 10.39 e6/mL | Viability ([1]; 5 microM, D 4): 72.71% | qP ([1]; 5 microM, D 4): 94.68 pg/c/d | Titer ([1]; 10 microM, D 1): 0.48 g/L | VCD ([1]; 10 microM, D 1): 9.99 e6/mL | Viability ([1]; 10 microM, D 1): 94.71% | qP ([1]; 10 microM, D 1): 47.72 pg/c/d | Titer ([1]; 10 microM, D 2): 0.66 g/L | VCD ([1]; 10 microM, D 2): 9.29 e6/mL | Viability ([1]; 10 microM, D 2): 83.23% | qP ([1]; 10 microM, D 2): 71.04 pg/c/d | Titer ([1]; 10 microM, D 3): 0.83 g/L | VCD ([1]; 10 microM, D 3): 9.55 e6/mL | Viability ([1]; 10 microM, D 3): 76.37% | qP ([1]; 10 microM, D 3): 87.30 pg/c/d | Titer ([1]; 10 microM, D 4): 0.96 g/L | VCD ([1]; 10 microM, D 4): 10.29 e6/mL | Viability ([1]; 10 microM, D 4): 72.16% | qP ([1]; 10 microM, D 4): 92.97 pg/c/d | effect on viability [1]: greater (but still modest) decreases in viability | growth arrest [1]: more sustained growth arrest

pIC50 (CDK4/Cyclin D1): 7.47 | pIC50 (Colo205): 7.46
SMILES: CN(C)C1CCN(c2ccc(Nc3ncc4c(n3)C3(C=CC(C)(C)CC3)c3cnccc3-4)cn2)CC1 (stereo not drawn) [Compound F, N-(6-(4-(dimethylamino)piperidin-1-yl)pyridin-3-yl)-4,4-dimethylspiro[cyclohex[2]ene-1,9′-pyrido[4′,3′:3,4]cyclopenta[1,2-d]pyrimidin]-2′-amine]
Titer ([1]; 1.2 microM, D 1): 0.49 g/L | VCD ([1]; 1.2 microM, D 1): 11.56 e6/mL | Viability ([1]; 1.2 microM, D 1): 96.84% | qP ([1]; 1.2 microM, D 1): 42.39 pg/c/d | Titer ([1]; 1.2 microM, D 2): 0.73 g/L | VCD ([1]; 1.2 microM, D 2): 10.80 e6/mL | Viability ([1]; 1.2 microM, D 2): 90.23% | qP ([1]; 1.2 microM, D 2): 67.31 pg/c/d | Titer ([1]; 1.2 microM, D 3): 0.96 g/L | VCD ([1]; 1.2 microM, D 3): 11.96 e6/mL | Viability ([1]; 1.2 microM, D 3): 89.40% | qP ([1]; 1.2 microM, D 3): 80.01 pg/c/d | Titer ([1]; 1.2 microM, D 4): 1.13 g/L | VCD ([1]; 1.2 microM, D 4): 14.70 e6/mL | Viability ([1]; 1.2 microM, D 4): 88.76% | qP ([1]; 1.2 microM, D 4): 77.09 pg/c/d | Titer ([1]; 2.4 microM, D 1): 0.50 g/L | VCD ([1]; 2.4 microM, D 1): 11.16 e6/mL | Viability ([1]; 2.4 microM, D 1): 95.96% | qP ([1]; 2.4 microM, D 1): 44.50 pg/c/d | Titer ([1]; 2.4 microM, D 2): 0.75 g/L | VCD ([1]; 2.4 microM, D 2): 10.01 e6/mL | Viability ([1]; 2.4 microM, D 2): 89.97% | qP ([1]; 2.4 microM, D 2): 75.27 pg/c/d | Titer ([1]; 2.4 microM, D 3): 0.97 g/L | VCD ([1]; 2.4 microM, D 3): 10.33 e6/mL | Viability ([1]; 2.4 microM, D 3): 88.89% | qP ([1]; 2.4 microM, D 3): 93.88 pg/c/d | Titer ([1]; 2.4 microM, D 4): 1.18 g/L | VCD ([1]; 2.4 microM, D 4): 12.84 e6/mL | Viability ([1]; 2.4 microM, D 4): 86.16% | qP ([1]; 2.4 microM, D 4): 91.87 pg/c/d | effect on viability [1]: minimal effects on viability | growth arrest [1]: reasonably sustained growth arrest
